The values below come from patent US10011587B2, “Multivalent ligands targeting VEGFR” (THE METHODIST HOSPITAL SYSTEM, priority 2014, dated 2018).

Data set [1] in a line: In vitro cell viability (MTT), cancer cell lines. Format: cell-based, human. The following applies: human, MDA-MB-231, HCT-116 and U-87-MG cancer cells; 100 μM, cancer cell lines, 72 h; read-out: cells remaining viable. How it is done: (§1) MDA-MB-231 and U-87-MG cell lines were cultured in DMEM medium (Gibco, Grand Island, N.Y.) containing 10% fetal bovine serum (FBS) and 1% penicillin streptomycin at 37° C. in a humidified atmosphere of 5% CO2 in air. HCT 116 (human, colorectal carcinoma cell line) was grown in McCoy's 5a medium modified with 10% FBS. HUVECs (Human Umbilical Vein Endothelial cells) were grown in EGM medium (Lonza), supplemented with 20% FBS, 100 U/mL penicillin, 100 μg/mL streptomycin at 37° C. under a humidified atmosphere of 5% CO2 and 95% O2 with same condition as above. For the cell viability assay, the cells were then seeded into 96-well flat-bottomed tissue-culture plates at 1×10^4 cells/well and incubated for 24 or 72 h in humidified atmosphere of 5% (v/v) CO2 at 37° C. in the presence of each compound. For HUVECs, the flat-bottomed 96-well plate (Corning, N.Y., USA) was coated 1 h at 37° C. with gelatin (0.3% in PBS, pH 7.4) and then washed with PBS. The cells were then treated with ZD6474 monomer and its dimer compounds in the range from 5 nM to 100 μM concentration mixed with 1% FBS added culture medium (HUVECs was 2% FBS added). Following 24 and 72 h of incubation under 5% CO2 at 37° C., the cells were washed with PBS and cell viability was assessed by MTT colorimetric assay. The absorbance of individual wells was measured by using an automated microplate reader (570 nm; VERSAmax, Molecular Devices Corp., Sunnyvale, Calif.). The data are expressed as the percentage of viable cells compared to the survival of a control group and were presented as mean±s.e. (n=6).

Data set [2] concerns HUVECs. The experiment in a line: In vitro cell viability (MTT), HUVECs. Format: cell-based, human. How it is done: as §1, with “The cells were then treated with ZD6474 monomer and its dimer compounds in the range from 5 nM to 100 μM concentration mixed with 1% FBS added culture medium (HUVECs was 2% FBS added).” left out, “(n=6).” left out
Data set [3] deals with HUVECs. The experiment in a line: In vitro tubular formation on Matrigel. Format: cell-based, human. Conditions: 10 μM, 6 h. How it is done:
Growth factor reduced Matrigel (100 μL, BD Bioscience, San Jose, Calif., USA) was added to each well of a 96-well plate and allowed to polymerize for 30 min at 37° C. HUVECs were suspended in the medium at the density of 4×10^5 cells per milliliter, and 0.1 mL of the cell suspension was added to each well coated with Matrigel in the presence of ZD6474 monomer or ZD6474 dimer Cells were incubated at 37° C. for 6 h, and then photographed. The branch points were counted and averaged.

The next data set concerns the target T1, VEGFR2 (Homo sapiens, UniProt P35968).
T1 construct: evaluated by saturation and displacement assays using U87 cells; endogenous in cells; host or cells: U87 (U87MG) human glioblastoma cells
Put plainly: Cell VEGFR2 receptor-binding assay, displacement/competition. The following applies: read-out: 50% inhibitory concentration (IC50). How it is done:
Cells were seeded in 12 well plates at concentration of 5×10^5 cells per well the day before the experiment. […] The cells were then washed with cold PBS and trypsinized. The cell-associated radioactivity was measured using γ-counter (Perkin-Elmer, CT) and the Kd values were calculated by fitting the data by nonlinear regression using GraphPad Prism (GraphPad Software, CA). […] The experiment procedures are similar with those used for the saturation study described above. All experiments were carried out with triplicate samples.

The next data set deals with T2, VEGFR (Homo sapiens, UniProt P35968).
T2 construct: endogenous in cells; host or cells: U-87 MG human glioblastoma cells
Put plainly: VEGFR cell receptor-binding assay, competition against 64Cu-DOTA-ZD-G2. The following applies: U-87 MG cells, 1 uCi 64Cu-DOTA-ZD-G2 per well, 4° C., 1 hour. As for the experimental part:
Cells were seeded in 12-well plates at a density about 5×10^5 cells per well the day before the experiment. […] The HPLC purified radio-tracer was re-dissolved in FBS-free DMEM medium and diluted to 1 uCi/100 uL. […] After incubation at 4° C. for 1 hour, the supernatant with free radio tracer was removed carefully and the cells were then washed with cold PBS for three times and trypsinized. The cells were collected and cell pellet associated radioactivity was measured and the binding affinity values (IC50) were calculated by nonlinear regression using GraphPad Prism (GraphPad Software, CA). All experiments were carried out in triplicate.

Data set [4] has as its system MDA-MB-231 cells and HUVEC. The experiment in a line: In vitro cellular uptake of FAM-conjugated compounds. Type of data set: cell-based, human. The following applies: 3 h, 100 nM dose. How it is done: Each of the FAM-conjugated compounds was incubated with MDA-MB-231 cells seeded 24 h earlier in a 96 well plate with 1% serum medium. Serial dilutions of the compounds were incubated for 3 h. The treated medium was then exchanged for fresh serum free medium. The remaining compound was then quantified from images taken using a Xenogen IVIS-200 (PerkinElmer, Inc. San Jose, Calif.) fluorescent imaging system. The same was done with HUVEC.

The subject of the next data set is VEGF receptor on HUVECs. The experiment in a line: Blocking assay of FAM-conjugated compounds. Type of data set: cell-based, human. Conditions: HUVEC. As for the experimental part:
Specific binding of ZD6474-monomer and dimer were tested with blocking studies. Unlabeled ZD6474-monomer and ZD6474-dimer were mixed with the corresponding FAM-conjugated compounds simultaneously for 3 h. Plates were then imaged using the Xenogen IVIS-200 system. Similarly treated cells were fixed in 4% paraformaldehyde and imaged under fluorescent microscopy after staining the nuclei with DAPI.

In data set [5] the test system is U87-MG human glioblastoma xenograft. The experiment in a line: Ex vivo tumor accumulation and biodistribution fluorescence imaging. Type of data set: in vivo, nu/nu female mice. How it is done: The subcutaneous dorsa of five nu/nu female mice (6 weeks old; 20 g) were inoculated bilaterally with 1×10^7 U87-MG human glioblastoma cells overexpressing the VEGF receptor. Once the tumor diameter was approximately 7-8 mm at 21 days post implant, the mice were divided into three groups for the following injections: (a) free FAM (n=1), (b) FAM-labeled ZD6474-monomer (50 μM; n=2), and (c) FAM-labeled ZD6474-dimer (50 μM, n=2). The animals were manually restrained during intravenous tail injection. All tail vein injections were carried out with a 31 gauge needle placed in a lateral tail vein to inject 100 μL of solution. Twenty-four hours post injection, fluorescence images were acquired using a one second exposure time. The tumors and major organs were dissected and imaged again. […] In vivo fluorescence imaging was performed using the Xenogen IVIS 200 imaging system. To better observe the signal without losses and background due to intervening tissue, fluorescence images were collected ex vivo. Raw counts for each organ were measured using the Xenogen software by drawing oval regions of interest (ROI) around the organ of interest. […] An estimate of the percentage of injected dose accumulated in the tumors was established by comparing measured counts/volume of tissue with the measured counts/volume of a known concentration of the same compound in water at the same exposure. […]

Data set [6] deals with MDA-MB-231, HCT-116, U-87-MG. Put plainly: In vitro cell viability (MTT), cancer cell lines. Type of data set: cell-based, human. How it is done: as §1
Data set [7] concerns VEGF165-induced angiogenesis. Put plainly: In vivo Matrigel plug assay. Set-up: species or system nu/nu nude mice. Conditions: VEGF165 500 ng/mL, compound 100 μM, 10 days. As for the experimental part: The matrigel plug assays were performed injecting 637 μL of growth factor reduced liquid Matrigel-PBS mixture was into subcutaneously into the flanks of nu/nu nude mice at 4° C. Once inside the animals, the liquid Matrigel-PBS mixture solidifies. For comparison, Matrigel alone as well as Matrigel containing VEGF165 (Peprotech, Rocky Hill, N.J.) at a final concentration of 500 ng/mL to stimulate angiogenesis, and Matrigel with VEGF165 along with either ZD6474 monomer, ZD6474 dimer at a final concentration of 100 μM were used. All of the injection groups consisted of three mice. After 10 days, the mice were sacrificed and the Matrigel plugs were removed, fixed in 4% formalin and photographed.

T1 sequence (P35968 20-1356): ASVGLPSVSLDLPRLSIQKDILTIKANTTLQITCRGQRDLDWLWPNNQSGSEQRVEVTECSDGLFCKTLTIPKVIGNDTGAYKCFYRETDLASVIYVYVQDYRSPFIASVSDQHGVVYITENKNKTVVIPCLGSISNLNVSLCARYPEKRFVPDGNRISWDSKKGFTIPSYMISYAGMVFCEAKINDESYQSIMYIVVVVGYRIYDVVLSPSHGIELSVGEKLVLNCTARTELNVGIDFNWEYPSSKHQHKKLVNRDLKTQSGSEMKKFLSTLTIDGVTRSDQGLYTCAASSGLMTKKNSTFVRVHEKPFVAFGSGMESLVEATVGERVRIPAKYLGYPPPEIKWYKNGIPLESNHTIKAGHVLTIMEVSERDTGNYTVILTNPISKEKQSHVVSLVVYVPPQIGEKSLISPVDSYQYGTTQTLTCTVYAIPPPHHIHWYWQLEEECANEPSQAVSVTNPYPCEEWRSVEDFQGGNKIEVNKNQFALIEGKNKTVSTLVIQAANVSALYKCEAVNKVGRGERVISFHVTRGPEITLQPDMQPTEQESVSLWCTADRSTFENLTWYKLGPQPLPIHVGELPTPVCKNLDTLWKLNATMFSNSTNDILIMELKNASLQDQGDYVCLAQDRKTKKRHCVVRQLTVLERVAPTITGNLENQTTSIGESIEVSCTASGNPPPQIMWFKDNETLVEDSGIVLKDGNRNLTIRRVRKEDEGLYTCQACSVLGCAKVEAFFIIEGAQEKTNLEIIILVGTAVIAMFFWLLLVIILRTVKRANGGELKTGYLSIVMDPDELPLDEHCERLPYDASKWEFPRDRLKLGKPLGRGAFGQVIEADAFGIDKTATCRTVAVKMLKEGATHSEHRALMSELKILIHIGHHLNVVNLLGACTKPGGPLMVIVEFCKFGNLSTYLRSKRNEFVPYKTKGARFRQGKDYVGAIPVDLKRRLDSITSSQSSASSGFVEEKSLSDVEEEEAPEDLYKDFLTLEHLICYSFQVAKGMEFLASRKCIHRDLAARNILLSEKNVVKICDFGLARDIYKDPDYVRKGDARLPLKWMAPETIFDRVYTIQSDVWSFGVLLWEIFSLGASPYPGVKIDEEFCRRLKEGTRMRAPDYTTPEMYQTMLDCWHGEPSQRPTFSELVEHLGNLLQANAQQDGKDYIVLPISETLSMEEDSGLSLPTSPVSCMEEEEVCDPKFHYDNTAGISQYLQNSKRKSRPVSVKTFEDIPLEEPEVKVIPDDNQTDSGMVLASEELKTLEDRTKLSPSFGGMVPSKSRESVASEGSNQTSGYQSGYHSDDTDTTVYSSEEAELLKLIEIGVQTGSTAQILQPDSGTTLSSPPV
T2 sequence (P35968 20-1356): as above

For the compound `COc1cc2c(Nc3ccc(Br)cc3F)ncnc2cc1OCC1CCN(C)CC1` [ZD-G1, vandetanib, reference compound], the viability at 72 h, 100 µM in data set [1] was approximately 50%. In addition, the “concentration at which cell viability begins to be affected” value in the data set on HUVECs [2] was found to be 500 nM. Besides, the “number of tube branches (control group 100%)” value in the data set with HUVECs [3] came out at 52.0±4.8%.
On to `COc1cc2c(Nc3ccc(Br)cc3F)ncnc2cc1OCC1CCN(C(=O)OCCN(CCOC(=O)NCCN)CCOC(=O)N2CCC(COc3cc4ncnc(Nc5ccc(Br)cc5F)c4cc3OC)CC2)CC1` [ZD-G2], for which the figures for the IC50 on VEGFR2 and at VEGFR were 0.023 ± 0.002 nM and 0.026 nM, respectively.
For the compound `COc1cc2c(Nc3ccc(Br)cc3F)ncnc2cc1OCC1CCN(C(=O)CCCCCC(NC(=O)c2ccc(C(=O)O)c(-c3c4ccc(=O)cc-4oc4cc(O)ccc34)c2)C(=O)N2CCC(COc3cc4ncnc(Nc5ccc(Br)cc5F)c4cc3OC)CC2)CC1` (stereo not shown) [dimer-FAM], the “uptake in HUVECs compared with MDA-MB-231 cells” value in [4] is “overall higher uptake of dimer-FAM by HUVECs”. The “blocking of fluorescence (cellular uptake images)” value with VEGF receptor on HUVECs (100 μM ZD6474-dimer) is reported as “Complete blocking of fluorescence”. The “loss of FAM signal when mixed with unlabeled dimer” value in the data set with VEGF receptor on HUVECs (100× unlabeled ZD6474-dimer, 3 h) is reported as approximately 90%. For the same compound, in [5] (24 h after i.v. injection, estimate against known dye concentrations), the “total injected dose ending up in the tumors” value is reported as “at least 6%”. Besides, the “fluorescent intensity of tumors relative to tumors in other groups and organs” value in [5] (ex vivo, 24 h following i.v. injection) is “about 20 ×”.
Turning to `COc1cc2c(Nc3ccc(Br)cc3F)ncnc2cc1OCC1CCN(C(=O)c2ccc(C(=O)O)c(-c3c4ccc(=O)cc-4oc4cc(O)ccc34)c2)CC1` [monomer-FAM], in the data set with VEGF receptor on HUVECs (100× unlabeled compound, 10 μM dose), the “mean blocked signal relative to blocked dimer FAM” value is reported as “over 10 ×”.
On to `COc1cc2c(Nc3ccc(Br)cc3F)ncnc2cc1OCC1CCN(C(=O)CCCCCC(N)C(=O)N2CCC(COc3cc4ncnc(Nc5ccc(Br)cc5F)c4cc3OC)CC2)CC1` (stereo not shown) [ZD6474-dimer], for which, in data set [6] (5 nM to 50 μM), the “toxicity to the cancer cells” value was “low toxicity”. In addition, the cells remaining viable entry in [6] (100 μM, cancer cell lines, 72 h) is given as “around 50%”. Further, the “concentration at which cell viability begins to be affected” value in the data set with HUVECs [2] was determined as 500 nM. Besides, the “number of tube branches (control group 100%)” value in the data set on HUVECs [3] was 75±5.2%. The “appearance of Matrigel plugs (blood vessel formation)” value in [7] is on record as “almost the same as the PBS treated negative control group”.
